Measured values reported in patent publication US20250163104A1, “MACROCYCLIC IMMUNOMODULATORS” (priority 2021, published 2025).
pIC50: −log10 of the molar value. Where a SMILES comes first, the peptide text is derived from it. Bridges are numbered along the chain shown (N, C = ends). [ ]: non-standard residue; d: D form. The star is where a group is joined. Bip = N[C@@H](Cc1ccc(-c2ccccc2)cc1)C(=O)O; 4Pal = N[C@@H](Cc1ccncc1)C(=O)O; Cha = N[C@@H](CC1CCCCC1)C(=O)O; dNle = CCCC[C@@H](N)C(=O)O; Carboxymethyl = O=C(O)C*; Orn = NCCC[C@H](N)C(=O)O; Dab = NCC[C@H](N)C(=O)O; Dap = NC[C@H](N)C(=O)O

Each compound was assayed against T1, human PD-1 / PD-L1-Ig binding on Jurkat cell line over-expressing human PD-1 (Jurkat-PD-1) (Homo sapiens, UniProt Q15116) (assay: Jurkat-PD-1 Cell Binding High-Content Screening Assay (CBA)). Details: Jurkat-PD-1 cells, PE-labeled PD-L1-Ig 20 nM final; read-out: Jurkat HPD1_PDL1 IC50.
T1 construct: expressed in transfected cells; host or cells: Jurkat
Type: cell-based
Procedure, shortened: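 Read-out: high-content imaging of PE-tagged PD-L1-Ig bound to Jurkat cells overexpressing human PD-1, after fixation with 4% paraformaldehyde and Hoechst 33342 nuclear staining. Ligand was used at 20 nM final for 1 hour, after a 2 h compound exposure at 37° C in serum-containing DMEM.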

T1 sequence (Q15116 25-288): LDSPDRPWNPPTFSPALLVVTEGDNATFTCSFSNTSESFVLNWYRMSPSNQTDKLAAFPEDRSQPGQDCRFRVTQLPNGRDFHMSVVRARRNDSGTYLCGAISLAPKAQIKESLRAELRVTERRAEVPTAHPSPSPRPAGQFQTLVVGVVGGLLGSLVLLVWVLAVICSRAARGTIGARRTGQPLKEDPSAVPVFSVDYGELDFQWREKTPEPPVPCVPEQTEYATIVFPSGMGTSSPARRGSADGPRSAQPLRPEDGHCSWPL

In order of rising pIC50:
1. CCCC[C@H]1NC(=O)[C@H](CCCN)NC(=O)[C@H]([C@@H](C)CC)NC(=O)[C@H](Cc2ccc(-c3ccccc3)cc2)NC(=O)[C@H](C(C)C)NC(=O)[C@H](Cc2c[nH]c3ccccc23)NC(=O)[C@H](CC(=O)O)NC(=O)[C@H](Cc2ccncc2)NC(=O)[C@H](Cc2ccc(OCC(=O)O)cc2)NC(=O)CSC[C@@H](C(=O)N[C@@H](C)C(N)=O)NC(=O)[C@H]([C@@H](C)O)NC(=O)[C@H](C(C)C)NC(=O)[C@H](CC2CCCCC2)NC(=O)[C@H](CCN)NC1=O [Compound 1710] ({CH2CO}-Y(Carboxymethyl)[4Pal]DWV[Bip]I[Orn][dNle][Dab][Cha]VTCA-NH2; thioether N-14)  7.47
2. CCCC[C@H]1NC(=O)[C@H](CCCN)NC(=O)[C@H]([C@@H](C)CC)NC(=O)[C@H](Cc2ccc(-c3ccccc3)cc2)NC(=O)[C@H](C(C)C)NC(=O)[C@H](Cc2c[nH]c3ccccc23)NC(=O)[C@H](CC(=O)O)NC(=O)[C@H](Cc2ccc(O)cc2)NC(=O)[C@H](CC(N)=O)NC(=O)CSC[C@@H](C(=O)N[C@@H](C)C(N)=O)NC(=O)[C@H]([C@@H](C)O)NC(=O)[C@H](C(C)C)NC(=O)[C@H](CC2CCCCC2)NC(=O)[C@H](CCN)NC1=O [Compound 1712] ({CH2CO}-NYDWV[Bip]I[Orn][dNle][Dab][Cha]VTCA-NH2; thioether N-14)  7.60
3. CCCC[C@H]1NC(=O)[C@H](CCCN)NC(=O)[C@H]([C@@H](C)CC)NC(=O)[C@H](Cc2ccc(-c3ccccc3)cc2)NC(=O)[C@H](C(C)C)NC(=O)[C@H](Cc2c[nH]c3ccccc23)NC(=O)[C@H](CC(=O)O)NC(=O)[C@H](Cc2ccc(OCC(=O)O)cc2)NC(=O)[C@H](CN)NC(=O)CSC[C@@H](C(=O)N[C@@H](C)C(N)=O)NC(=O)[C@H]([C@@H](C)O)NC(=O)[C@H](C(C)C)NC(=O)[C@H](CC2CCCCC2)NC(=O)[C@H](CCN)NC1=O [Compound 1708]  7.64
4. CCCC[C@H]1NC(=O)[C@H](CCCN)NC(=O)[C@H]([C@@H](C)CC)NC(=O)[C@H](Cc2ccc(-c3ccccc3)cc2)NC(=O)[C@H](C(C)C)NC(=O)[C@H](Cc2c[nH]c3ccccc23)NC(=O)[C@H](CC(=O)O)NC(=O)[C@H](Cc2ccc(C(=O)O)cc2)NC(=O)[C@H](Cc2ccc(OCC(=O)O)cc2)NC(=O)CSC[C@@H](C(=O)N[C@@H](C)C(N)=O)NC(=O)[C@H]([C@@H](C)O)NC(=O)[C@H](C(C)C)NC(=O)[C@H](CC2CCCCC2)NC(=O)[C@H](CCN)NC1=O [Compound 1707]  7.73
5. CCCC[C@H]1NC(=O)[C@H](CCCN)NC(=O)[C@H]([C@@H](C)CC)NC(=O)[C@H](Cc2ccc(-c3ccccc3)cc2)NC(=O)[C@H](C(C)C)NC(=O)[C@H](Cc2c[nH]c3ccccc23)NC(=O)[C@H](CC(=O)O)NC(=O)[C@H](Cc2ccncc2)NC(=O)[C@H](CN)NC(=O)CSC[C@@H](C(=O)N[C@@H](C)C(N)=O)NC(=O)[C@H]([C@@H](C)O)NC(=O)[C@H](C(C)C)NC(=O)[C@H](CC2CCCCC2)NC(=O)[C@H](CCN)NC1=O [Compound 1711] ({CH2CO}-[Dap][4Pal]DWV[Bip]I[Orn][dNle][Dab][Cha]VTCA-NH2; thioether N-14)  7.89
6. CCCC[C@H]1NC(=O)[C@H](CCCN)NC(=O)[C@H]([C@@H](C)CC)NC(=O)[C@H](Cc2ccc(-c3ccccc3)cc2)NC(=O)[C@H](C(C)C)NC(=O)[C@H](Cc2c[nH]c3ccccc23)NC(=O)[C@H](CC(=O)O)NC(=O)[C@H](Cc2ccc(OCC(=O)O)cc2)NC(=O)[C@H](Cc2ccncc2)NC(=O)CSC[C@@H](C(=O)N[C@@H](C)C(N)=O)NC(=O)[C@H]([C@@H](C)O)NC(=O)[C@H](C(C)C)NC(=O)[C@H](CC2CCCCC2)NC(=O)[C@H](CCN)NC1=O [Compound 1709]  7.98
